Experimental data reported in PMC6836644, “A multiple classifier system identifies novel cannabinoid CB2 receptor ligands” (Journal of Cheminformatics, 2019).

Target: T1, human CB2 receptor (Homo sapiens, UniProt P34972)
T1 construct: beta-galactosidase fragment (the cell line's name says 'bgal'; own knowledge: PathHunter enzyme-fragment-complementation lines carry a small beta-gal fragment fused to the receptor's C-terminus); host or cells: CHO-K1 (CHOK1hCB2_bgal), membranes
Assay: [3H]CP55940 displacement assay
Type: binding
Conditions: for pKi ± SEM: [3H]CP55940 (~1.5 nM) displacement, CHOK1hCB2_bgal membranes, 25 °C, 2 h, three separate experiments in duplicate; for % displacement of the radioligand: 10 μM of the compound, [3H]CP55940, CHOK1hCB2_bgal membranes
Experimental: CHOK1hCB2_bgal cells (DiscoverRx, Fremont, CA, USA) were cultured in Dulbecco’s Modified Eagle’s Medium/Nutrient Mixture F-12 Ham supplemented with 10% fetal calf serum, 1 mM glutamine, 50 µg/mL penicillin, 50 µg/mL streptomycin, […] hygromycin and 800 µg/mL geneticin in a humidified atmosphere at 37 °C and 5% CO2. Cells were subcultured twice a week at a ratio of 1:20 on 10-cm diameter plates by trypsinization. For membrane preparation, the cells were subcultured with a ratio of 1:10 and transferred to 15-cm diameter plates. The cells were collected by scraping in 5 mL phosphate-buffered saline (PBS) and centrifuged at 1000 g for 5 min. Pellets derived from 30 plates were combined and resuspended in 20 mL cold Tris–HCl, MgCl2 buffer (50 mM Tris–HCl (pH 7.4), 5 mM MgCl2). The cell suspension was homogenized using an UltraTurrax homogenizer (Heidolph Instruments Schwabach, Germany). Membranes and cytosolic fractions were separated by centrifugation in a Beckman Optima LE-80 K ultracentrifuge (Beckman Coulter Inc., Fullerton, CA, USA) at 100,000 g for 20 min at 4 °C. The supernatant was discarded. The pellet was resuspended in 10 mL cold Tris–HCl, MgCl2 buffer and homogenization and centrifugation steps were repeated. The membranes were resuspended in 10 mL cold Tris–HCl, MgCl2 buffer. Aliquots of 50 µL were stored at -80 °C until further use. The protein concentration was determined using the Pierce™ BCA Protein Assay Kit (ThermoFisher Scientific, Waltham, MA, USA).
At first, all compounds were tested at a final concentration of 10 µM. […] Six different concentrations of the compounds were added by an HP D300 digital dispenser (Tecan Group Ltd, Männedorf, Switzerland). In order to determine the total binding, a control without test compound was included. Nonspecific binding was determined in the presence of 10 µM AM630. The total assay volume was 100 µL. The final concentration of DMSO was ≤ 0.25%. The incubation was terminated by rapid vacuum filtration through GF/C 96-well filter plates (PerkinElmer, Waltham, MA), to separate the bound and free radioligand, using a PerkinElmer Filtermate-harvester (PerkinElmer, Groningen, The Netherlands). Filters were subsequently washed […] with ice-cold assay buffer. The filter-bound radioactivity was determined by scintillation spectrometry using a Microbeta2® 2450 microplate counter (PerkinElmer, Boston, MA), after addition of 25 μl MicroScint 20 (PerkinElmer, Groningen, The Netherlands) and 3 h incubation.
All experimental data were analyzed using GraphPad Prism 7 [36]. The data were normalized to percentage specific radioligand binding, where the total binding is 100% and nonspecific binding is 0%. […] All data were obtained from three separate experiments performed in duplicate.

T1 sequence (P34972 whole entry, the tested form may be a part): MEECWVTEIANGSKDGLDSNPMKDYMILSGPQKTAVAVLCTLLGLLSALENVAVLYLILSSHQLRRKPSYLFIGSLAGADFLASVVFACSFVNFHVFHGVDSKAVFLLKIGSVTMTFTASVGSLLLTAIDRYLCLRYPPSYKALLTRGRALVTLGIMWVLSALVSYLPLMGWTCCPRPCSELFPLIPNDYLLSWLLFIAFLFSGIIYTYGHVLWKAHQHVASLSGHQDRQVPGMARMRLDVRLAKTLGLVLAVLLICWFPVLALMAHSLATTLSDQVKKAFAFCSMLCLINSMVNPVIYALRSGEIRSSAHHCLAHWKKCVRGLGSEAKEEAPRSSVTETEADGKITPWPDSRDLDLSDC

SMILES | pKi ± SEM | % displacement of the radioligand [%]
Cc1ccc(NC(=O)C2CCC(C(C)(C)C)CC2)cc1S(=O)(=O)N1CCOCC1 (centres unmarked) [Z26476746] | 6.54 ± 0.14 | 
CCn1cc(C(=O)NCC2(N3CCOCC3)CCCCC2)c(=O)c2ccc(C)nc21 [Z27019562] |  | 30
CCOC(=O)c1c(NC(=O)CC23CC4CC(CC(C4)C2)C3)sc2c1CCCC2 [Z27680708] | 7.46 ± 0.32 | 
Cc1nn(-c2ccccc2)c2sc(C(=O)NC34CC5CC(CC(C5)C3)C4)cc12 [Z27687279] |  | 38
Cc1ccc(C(=O)NC23CC4CC(CC(C4)C2)C3)cc1S(=O)(=O)N1CCCCC1 [Z27687312] | 7.22 ± 0.46 | 
CC1(C)C2CCC1(C)C(NC(=O)C1CCN(S(=O)(=O)c3ccc(F)c(F)c3)CC1)C2 (centres unmarked) [Z28357392] |  | 26
CCCCn1nc(C(=O)NC2CC3CCC2(C)C3(C)C)c2ccccc2c1=O (centres unmarked) [Z28357657] | 6.81 ± 0.29 | 
CCC(NC(=O)c1cccc(S(=O)(=O)N2CCOCC2)c1)C12CC3CC(CC(C3)C1)C2 (centres unmarked) [Z28609248] |  | 16
Cc1ccc(C(=O)NC2CCCC(C)C2C)cc1S(=O)(=O)N1CCOCC1 (centres unmarked) [Z32934509] | 6.47 ± 0.02 | 
CC1(C)C2CC=C(/C=N/NC(=O)CCc3ccc(S(=O)(=O)N4CCOCC4)cc3)C1C2 (centres unmarked) [Z44867007] |  | 0
COc1ccc(C=C(C(=O)NC2CCCCC2)C(=O)NC2CCCCC2)cc1OC [Z46091805] |  | 38
CCN(CC)c1ccc(S(=O)(=O)N2CCOCC2)cc1NS(=O)(=O)CC12CCC(CC1=O)C2(C)C (centres unmarked) [Z55473655] |  | 7
CCC(C)(C)C1CCC(NC(=O)c2cc(S(=O)(=O)N3CCOCC3)ccc2C)CC1 (centres unmarked) [Z91179667] |  | 29
CCc1ccc(C(=O)NC(C)C23CC4CC(CC(C4)C2)C3)cc1S(=O)(=O)N1CCOCC1 (centres unmarked) [Z336532434] | 7.67 ± 0.17 | 
CC(C)C(NC(=O)CN1CCN(c2nccn2C)CC1)c1ccc2c(c1)OCCCO2 (centres unmarked) [Z1317886912] |  | 3
CC1(CN2CCOCC2)CCN(CC(=O)N2CCc3sccc3C2)CC1 [Z1523102560] |  | 18
COc1ccc2c(c1)c(C(=O)N(C)CC(C)OC)c(C)n2C1CC1 (centres unmarked) [Z2094674960] |  | 0
